Patent EP1056700B1, “MEDICINAL USES OF PHENYLALKANOLS AND DERIVATES” (ZingoTX Pty Ltd, priority 1997, dated 1999)
“Also recorded” adds a separate entry of the source.

Columns and labels:
[1] = system: right atrium guinea pig; assay: Cardiovascular and neuro-effector junction activities: right atrium, guinea pig; conditions: for right atrium guinea pig: result in words with concentration
Description: (§1) The cardiotonic action of 1-(4-hydroxy-3-methoxyphenyl)dodecan-3-ol [3.93] was confirmed from independent studies, carried out at our request as part of our agreement with Johnson & Johnson Research Ltd (J&J), by Prof. James Angus from the University of Melbourne. […] A tachycardial effect of the substance on guinea pig atria was, however, observed at significant rate, 50-60% of isoprenaline Emax and the response was not α- or β-adrenoceptor mediated. […] Cardiovascular and neuro-effector junction activities of gingerol analogues

[2] = system: rabbit platelet-rich plasma; assay: Antiplatelet aggregation screen with arachidonic acid in rabbit platelet-rich plasma; type: cell-based
[3] = system: right atrium-vagus guinea pig; assay: Cardiovascular and neuro-effector junction activities: right atrium-vagus, guinea pig; conditions: result in words with concentration
Description: as §1

[4] = system: right atrium-vagus rat; assay: Cardiovascular and neuro-effector junction activities: right atrium-vagus, rat; conditions: result in words with concentration
Description: as §1

[5] = system: left atrium rat; assay: Cardiovascular and neuro-effector junction activities: left atrium, rat; conditions: result in words with concentration
Description: as §1

[6] = system: left atrium guinea pig; assay: Cardiovascular and neuro-effector junction activities: left atrium, guinea pig; conditions: for left atrium guinea pig: result in words with concentration
Description: as §1

[7] = system: right atrium rat; assay: Cardiovascular and neuro-effector junction activities: right atrium, rat; conditions: result in words with concentration
Description: as §1

[8] = system: vas deferens rat; assay: Cardiovascular and neuro-effector junction activities: vas deferens, rat
Description: as §1

[9] = biological target: T1, 5-lipoxygenase (Rattus norvegicus, UniProt P12527); assay: 5-lipoxygenase assay (MDS PANLABS), RBL-1 cells, 5-HETE radioimmunoassay; type: biochemical; conditions: arachidonic acid as substrate
T1 construct: 5-lipoxygenase activity from rat basophilic leukemia cells (RBL-1); host or cells: RBL-1 (rat basophilic leukemia)
T1 sequence (P12527 whole entry): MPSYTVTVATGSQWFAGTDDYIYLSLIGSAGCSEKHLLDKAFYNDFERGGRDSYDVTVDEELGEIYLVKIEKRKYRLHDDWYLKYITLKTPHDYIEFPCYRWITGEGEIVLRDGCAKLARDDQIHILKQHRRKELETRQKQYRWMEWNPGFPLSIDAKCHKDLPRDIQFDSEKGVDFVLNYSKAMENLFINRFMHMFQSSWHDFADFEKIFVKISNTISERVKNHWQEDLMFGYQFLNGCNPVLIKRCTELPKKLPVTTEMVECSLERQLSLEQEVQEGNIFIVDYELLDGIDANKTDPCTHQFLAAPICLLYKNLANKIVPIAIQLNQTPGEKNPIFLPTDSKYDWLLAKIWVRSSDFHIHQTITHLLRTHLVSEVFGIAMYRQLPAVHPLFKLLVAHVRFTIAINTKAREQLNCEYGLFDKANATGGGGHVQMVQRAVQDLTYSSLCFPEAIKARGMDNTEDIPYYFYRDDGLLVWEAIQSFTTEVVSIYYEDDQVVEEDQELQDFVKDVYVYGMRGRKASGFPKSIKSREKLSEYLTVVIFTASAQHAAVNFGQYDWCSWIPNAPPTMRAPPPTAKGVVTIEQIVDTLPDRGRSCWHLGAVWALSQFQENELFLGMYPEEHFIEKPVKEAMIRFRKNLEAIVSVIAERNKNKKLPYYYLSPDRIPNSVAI
Description: 3-hydroxy-1-(4-hydroxy-3-methoxyphenyl)dodecane [3.93] was tested at MDS PANLABS: Pharmacology Services (Taiwan) for 5-lipoxygenase activity from rat basophilic leukemia cells (RBL-1) with arachidonic acid as substrate. The inhibitory activity of the substance was quantitated, using radioimmunoassay, from the formation of 5-HETE. At 10 µM, the substance gave approximate 90% inhibition of 5-lipoxygenase activity.

[10] = system: brine shrimp (Artemia salina Leach); assay: Brine shrimp toxicity bioassay; type: in vivo; conditions: result in words
[11] = Bleeding time in mice; type: in vivo
[12] = biological target: T2, NK-1 receptor (Cavia porcellus, UniProt P30547); assay: Neurokinin-1 binding with [^3H]Substance P on guinea pig submaxillary membrane
T2 construct: tested on guinea pig submaxillary membrane; from tissue; host or cells: guinea pig submaxillary membrane
T2 sequence (P30547 whole entry): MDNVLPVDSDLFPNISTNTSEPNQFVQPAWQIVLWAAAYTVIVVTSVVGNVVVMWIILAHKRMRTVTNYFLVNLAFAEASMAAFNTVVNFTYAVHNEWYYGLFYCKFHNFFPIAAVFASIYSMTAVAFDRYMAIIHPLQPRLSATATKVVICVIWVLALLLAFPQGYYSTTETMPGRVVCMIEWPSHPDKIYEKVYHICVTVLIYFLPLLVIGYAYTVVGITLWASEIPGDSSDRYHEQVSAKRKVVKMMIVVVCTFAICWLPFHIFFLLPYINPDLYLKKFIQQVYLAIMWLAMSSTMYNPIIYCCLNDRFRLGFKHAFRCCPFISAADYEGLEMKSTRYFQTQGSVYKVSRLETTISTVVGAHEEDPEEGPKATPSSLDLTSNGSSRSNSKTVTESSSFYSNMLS
Description: 3-hydroxy-1-(4-hydroxy-3-methoxyphenyl)dodecane [3.93], was tested on guinea pig submaxillary membrane for neurokinin-1 (NK-1) antagonist activity with tritium labelled [^3H]Substance P and found to have relatively potent inhibition of the binding of Substance P to NK-1 receptor. […] It gave approximately 80% inhibition at 30 µM.

[13] = Acute toxicity in mice for 3 days; type: in vivo
Description: However, no toxicity was shown towards mice for dose by the oral route. […] Brine shrimp toxicity for gingerols and gingerol analogues tested ranged from low to moderate.

[14] = system: cardiac Purkinje fibres; assay: Cardiac electrophysiology on Purkinje fibres; design: species or system dog; conditions: for effect on rate of depolarization, amplitude of action potential and duration of action potential at 50% and 90% repolarization: up to 10 µM
Description: The basic cardiac electrophysiological properties were assessed using cardiac Purkinje fibres obtained from adult mongrel dogs.
Electrophysiology was carried out on dog heart purkinje fibre to test for potential arrhythmia. […] At high concentration (50 µM), however, [8]-gingerol reduced approximate 80% and 50% of action potential duration at 50% and 90% repolarisations respectively. Whereas the analogue reduced 75% and 30% respectively.

[15] = dogs, 0.3 mg / kg, i.v.; cited from earlier work

CCCCCCCCCC(O)CCc1ccc(O)c(OC)c1 (stereo not drawn) [1-(4-hydroxy-3-methoxyphenyl)dodecan-3-ol]
Emax ([1]; Cavia porcellus, right atrium guinea pig, 10^-7 - 3x10^-5 M, not blocked by praz., prop., read-out: tachycardia, % of isoprenaline Emax): 50 to 60% | right atrium guinea pig [1]: tachycardia 10^-7 - 3x10^-5 M | tachycardia, % of isoprenaline Emax ([1]; right atrium guinea pig, 10^-7 - 3x10^-5 M, not blocked by praz., prop.): 60% | platelet function via adenosine diphosphate or thromboxane A2 mechanisms [2]: did not affect | antiplatelet aggregation activity compared with the indomethacin reference compound ([2]; arachidonic acid as substrate): three time more potent | right atrium-vagus guinea pig [3]: no enhancement of vagal slowing 10^-7 - 10^-5 M | right atrium-vagus rat [4]: dramatic enhancement n=1 10^-6 - 10^-5 M | left atrium rat [5]: no change in force 10^-7 - 10^-5 M (n=2) | inotropic, % isopren. max. ([6]; left atrium guinea pig, 10^-6 - 3x10^-5 M (not in rat)): 20% | left atrium guinea pig [6]: inotropic 10^-6 - 3x10^-5 M | right atrium rat [7]: tachycardi a 3x10^-7 - 3x10^-6 M (with propranolo 1 present) | block of ATP or α1-receptors in vas deferens [8]: Neither blocked | vas deferens rat ↓ ([8]; 10^-5 M (vehicle?)): ↓30% 10^-5 M (vehicle?) | inhibition at 10 µM [9]: ~90% | toxicity towards brine shrimp [10]: low toxicity | effect on bleeding time [11]: little or no effect | inhibition at 30 µM [12]: ~80% | Acute toxicity ([13]; mice, 3 days, intraperitoneal administration): slight decrease in spontaneous activity, response to touch and limb tone | Acute toxicity ([13]; mouse, in vivo, po): no toxicity

CCCCCCCC(O)CC(=O)c1ccc(O)c(OC)c1 (stereo not drawn) [3-hydroxy-1-(4-hydroxy-3-methoxyphenyl)decan-1-one]
right atrium guinea pig [1]: no change basal rate 10^-7 - 10^-5 M | right atrium-vagus guinea pig [3]: weak? enhanced slowing 10^-7 - 10^-6 M | Action Potential Amplitude ([14]; 5 µM): 125±3 mV | Action Potential Duration 50% repolarisation ([14]; 5 µM): 176 ± 17 ms | Action Potential Duration 90% repolarisation ([14]; 5 µM): 270 ± 26 ms | Maximum rate of depolarisation ([14]; 5 µM): 524±66 V/s | Action Potential Amplitude ([14]; 10 µM): 127±4 mV | Action Potential Duration 50% repolarisation ([14]; 10 µM): 157 ± 23 ms | Action Potential Duration 90% repolarisation ([14]; 10 µM): 257 ± 25 ms | Maximum rate of depolarisation ([14]; 10 µM): 527±78 V/s | Action Potential Amplitude ([14]; 20 µM): 123±6 mV | Action Potential Duration 50% repolarisation ([14]; 20 µM): 124 ± 16 ms | Action Potential Duration 90% repolarisation ([14]; 20 µM): 245 ± 17 ms | Maximum rate of depolarisation ([14]; 20 µM): 521±87 V/s | Action Potential Amplitude ([14]; 30 µM): 115±7 mV | Action Potential Duration 50% repolarisation ([14]; 30 µM): 94 ± 10 ms | Action Potential Duration 90% repolarisation ([14]; 30 µM): 212 ± 21 ms | Maximum rate of depolarisation ([14]; 30 µM): 423±45 V/s | Action Potential Amplitude ([14]; 40 µM): 117±7 mV | Action Potential Duration 50% repolarisation ([14]; 40 µM): 81 ± 10 ms | Action Potential Duration 90% repolarisation ([14]; 40 µM): 201 ± 13 ms | Maximum rate of depolarisation ([14]; 40 µM): 442±61 V/s | Action Potential Amplitude ([14]; 50 µM): 110±9 mV | Action Potential Duration 50% repolarisation ([14]; 50 µM): 55 ± 4 ms | Action Potential Duration 90% repolarisation ([14]; 50 µM): 188 ± 19 ms | Maximum rate of depolarisation ([14]; 50 µM): 363±74 V/s | reduction of action potential duration at 50% repolarisation ([14]; 50 µM): 75% | reduction of action potential duration at 90% repolarisation ([14]; 50 µM): 30% | effect on rate of depolarization, amplitude of action potential and duration of action potential at 50% and 90% repolarization ([14]; listed as 3.92): insignificant effect; also recorded: only a small effect | right atrium-vagus rat [4]: some enhanced slowing 10^-6 - 10^-5 M | left atrium rat [5]: no change 10^-7 - 3x10^-5 M (sharp fall 10^-4 M) | left atrium guinea pig [6]: • no inotropi sm | effect on isoprenaline response, left atrium guinea pig ([6]; up to 30 µM): • no effect on isoprenali ne response (up to 30 µM) | right atrium rat [7]: no change basal rate 10^-7 - 10^-5 M | block of ATP or α1-receptors in vas deferens [8]: Neither blocked | vas deferens rat ([8]; result in words with concentration): no effect 10^-4 M

CCCCCCCC(O)CC(=O)CCc1ccc(O)c(OC)c1 (stereo not drawn) [[8]-gingerol, 5-hydroxy-1-(4-hydroxy-3-methoxyphenyl)dodecan-3-one, reference compound]
Action Potential Amplitude ([14]; 5 µM): 124±2 mV | Action Potential Duration 50% repolarisation ([14]; 5 µM): 242 ± 20 ms | Action Potential Duration 90% repolarisation ([14]; 5 µM): 363 ± 27 ms | Maximum rate of depolarisation ([14]; 5 µM): 532±42 V/s | Action Potential Amplitude ([14]; 10 µM): 120±4 mV | Action Potential Duration 50% repolarisation ([14]; 10 µM): 207 ± 20 ms | Action Potential Duration 90% repolarisation ([14]; 10 µM): 339 ± 26 ms | Maximum rate of depolarisation ([14]; 10 µM): 483±41 V/s | Action Potential Amplitude ([14]; 20 µM): 119±2 mV | Action Potential Duration 50% repolarisation ([14]; 20 µM): 142 ± 20 ms | Action Potential Duration 90% repolarisation ([14]; 20 µM): 285 ± 26 ms | Maximum rate of depolarisation ([14]; 20 µM): 499±41 V/s | Action Potential Amplitude ([14]; 30 µM): 114±3 mV | Action Potential Duration 50% repolarisation ([14]; 30 µM): 107 ± 17 ms | Action Potential Duration 90% repolarisation ([14]; 30 µM): 248 ± 25 ms | Maximum rate of depolarisation ([14]; 30 µM): 443±45 V/s | Action Potential Amplitude ([14]; 40 µM): 116±4 mV | Action Potential Duration 50% repolarisation ([14]; 40 µM): 88 ± 15 ms | Action Potential Duration 90% repolarisation ([14]; 40 µM): 229 ± 22 ms | Maximum rate of depolarisation ([14]; 40 µM): 516±67 V/s | Action Potential Amplitude ([14]; 50 µM): 109±8 mV | Action Potential Duration 50% repolarisation ([14]; 50 µM): 76 ± 12 ms | Action Potential Duration 90% repolarisation ([14]; 50 µM): 221 ± 19 ms | Maximum rate of depolarisation ([14]; 50 µM): 471±73 V/s | reduction of action potential duration at 50% repolarisation ([14]; 50 µM): ~80% | reduction of action potential duration at 90% repolarisation ([14]; 50 µM): ~50% | effect on rate of depolarization, amplitude of action potential and duration of action potential at 50% and 90% repolarization [14]: insignificant effect | duration of increased cardiac contractility [15]: 10 min | increased cardiac contractility [15]: about 30%
